The values below come from paper PMC3814572, “Identification of Novel Compounds Inhibiting Chikungunya Virus-Induced Cell Death by High Throughput Screening of a Kinase Inhibitor Library” (PLoS Neglected Tropical Diseases, 2013).

Series [1] deals with CHIKV-118-GFP. The series can be described thus: Image-based high-content assay of CHIKV-118-GFP infectivity in HuH-7. It is filed as cell-based, Chikungunya virus. The note with it: for percentage of infected cells / inhibition at 50 µM / inhibition at 20 µM: 24 hrs; for observed apoptotic blebs associated with CHIKV infection: 24 hpi; for inhibition at 50 µM / inhibition at 20 µM: Chikungunya virus, read-out: inhibition of CHIKV-118-GFP infection.

For series [2], the system named is DENV2 (BR DEN2 01-01). The note with it: 10 µM, Huh-7.5, 72 hrs; cited from earlier work.
The test system of series [3] is Huh-7.5 cells. The settings on record: 10 µM, Huh-7.5, 72 hrs; cited from earlier work.
Series [4] in a line: Resazurin reduction assay, toxicity in MOCK-infected (non-infected) HuH-7. The settings on record: human. In general terms: The colour change of resazurin is a common sign of viable cells or microbes.
In series [5] the test system is CHIKV-118-GFP. The series can be described thus: Resazurin reduction assay, dose-response of inhibition of CHIKV-associated cell death in HuH-7. The settings on record: for pEC50: Chikungunya virus, Huh-7, 72 h; for SI (CC50/EC50): minimum SI based on the highest concentration of compound tested.
Series [6] deals with CHIKV-118-GFP. The series is described as follows: Virus yield reduction assay (plaque assay of culture medium). The note with it: 24 hrs, culture supernatant of HuH-7.
For series [7], the system named is HuH-7 cells. The series can be described thus: Cell number by DAPI-stained nuclei imaging in HuH-7. The note with it: 50 µM.
For series [8], the system named is HuH-7 cells. The series is described as follows: Resazurin reduction assay, toxicity in MOCK-infected (non-infected) HuH-7. The settings on record: HuH-7.
The subject of series [9] is HuH-7 cells. The settings on record: human.
The nature of series [10]: in vitro. The settings on record: human.
In series [11] the test system is CHIKV-118-GFP. The series can be described thus: Microneutralization assay (protection against CHIKV-induced CPE). The settings on record: 50 pfu CHIKV-118-GFP, 72 hrs, HuH-7.
[12] abbreviates: read-out: EC50 (concentration showing 50% inhibition relative to the maximum inhibition achieved).

pEC50: −log10 of the molar value. Where two headings read alike, the source gives them in different places.

With `CC(C)c1ccc(NC(=O)c2csc(C(O)C(C)C)n2)cc1` (stereo not drawn) [CND3514], the “percentage of infected cells” value in series [1] (20 µM) is recorded as 92.2%. Further, the “inhibition against DENV2” value in series [2] is given as 67.87%. The “toxicity in DENV2 screening (cell number)” value in [3] was 39.37%. This compound also showed a CC50 at 72 h in [4] of more than 50 µM. Moreover, the pEC50 in series [5] (setting [12]) is 5.66. Moreover, the “SI (CC50/EC50)” value in [5] is on record as more than 22.7.
Consider `COc1ccc(-c2ccc(C(=O)NC(C)C)c3occc23)c(C)c1` [CND0335], for which, in series [1] (20 µM), the “percentage of infected cells” value came to 90.9%. For the same compound, the CC50 at 72 h in series [4] was more than 50 µM. The pEC50 in [5] (setting [12]) is 5.48. Besides, the “SI (CC50/EC50)” value in [5] is on record as more than 15.
Consider `COc1ccc(-c2coc3c(C(=O)Nc4cccnc4)cccc23)c(C)c1` [CND0366], for which the “percentage of infected cells” value in series [1] (20 µM) amounted to 94.4%. For the same compound, the CC50 at 72 h in [4] was more than 50 µM. The pEC50 in [5] (setting [12]) was 5.15. Moreover, the “SI (CC50/EC50)” value in series [5] is given as more than 7.0.
As to `CCN(CC)CCCC(C)Nc1ccnc2cc(Cl)ccc12` (stereo not drawn) [CQ, Chloroquine, reference compound], in series [1] (50 µM), the “percentage of infected cells” value came to 24.4% and the inhibition at 50 µM was determined as 75.6%. Besides, in series [1], the “observed apoptotic blebs associated with CHIKV infection” value (from here on “observed apoptotic blebs associated”) was “still prominent”. For the same compound, the “log titer reduction vs DMSO vehicle control” value (“log titer reduction” below) in series [6] (50 µM) stood at 1.88 log. In series [4], the CC50 at 72 h was 90 µM. In addition, in series [5], the pEC50 was 4.54.
With `CN(C)CCCN1c2ccccc2Sc2ccc(Cl)cc21` [CPZ, Chlorpromazine], the “reduction of cell number” value in [7] (24 hrs) is listed as 86%; in series [7] (48 hrs), more than 99.9%; in series [7] (72 hrs), more than 99.9%; in [7] (96 hrs) it was more than 99.9%. In series [8] (50 µM, 72 hpi), the “fluorescence readout after resazurin treatment” value was 240,842±14,730 RFU.
Take `COc1ccc(-c2coc3c(C(=O)NC(C)C)cccc23)c(C)c1` [CND0415]: the “percentage of infected cells” value in series [1] (20 µM) is on record as 96.4%. For the same compound, the CC50 at 72 h in series [4] was more than 50 µM. Further, in [5] (setting [12]), the pEC50 was 5.21. Also, in [5], the “SI (CC50/EC50)” value was more than 8.1.
For the compound `CO/C1=C\C(C)=C\[C@@H](C)[C@@H](O)[C@@H](C)C/C(C)=C/C=C/[C@H](OC)[C@@H]([C@@H](C)[C@@H](O)[C@H](C)[C@@]2(O)C[C@@H](O)[C@H](C)[C@@H](C(C)C)O2)OC1=O` [BAF, Bafilomycin A1], the CC50 in series [9] is 0.237 µM; in series [10], 0.09 µM. This compound had a pEC50 in [5] of 7.25.
For `COc1c(C)c2c(c(O)c1C/C=C(\C)CCC(=O)O)C(=O)OC2` [MPA, Mycophenolic acid, reference compound], in series [1] (50 µM), the “percentage of infected cells” value is recorded as 7.34% and the inhibition at 50 µM is more than 92%. For the same compound, the “observed apoptotic blebs associated” value in series [1] is “significantly lower”. In [4], the CC50 at 72 h is more than 100 µM. In [8] (100 µM), the “cytotoxicity at the highest concentration tested” value is recorded as “no observable cytotoxicity”. In series [5], the pEC50 is 5.80.
Consider `COc1cccc(Nc2cc3c(cn2)cc(-c2cccc(C(F)(F)F)c2)n3C)c1` [CND0545], for which, in [1] (20 µM), the “percentage of infected cells” value is listed as 71.7% and the inhibition at 20 µM was 28.3%. In addition, in series [1], the “observed apoptotic blebs associated” value was “significantly lower”. Moreover, the “log titer reduction” value in series [6] (20 µM) is recorded as 2.01 log. The “lowest concentration that inhibited CHIKV-induced CPE (clearing of cell monolayer)” value in series [11] was 25 µM. The same compound registered a CC50 at 72 h in series [4] of more than 50 µM. Also, in series [5] (setting [12]), the pEC50 was 5.25. Also, the “SI (CC50/EC50)” value in series [5] is recorded as more than 8.9.
For the compound `COc1ccc(-c2ccc(C(=O)Nc3ccc(C(C)C)cc3)c3occc23)c(C)c1` [CND0364], in [1] (20 µM), the “percentage of infected cells” value came out at 80.3% and the inhibition at 20 µM was 19.7%. In addition, the “observed apoptotic blebs associated” value in series [1] was “significantly lower”. For the same compound, the “log titer reduction” value in series [6] (20 µM) worked out at 1.69 log. Moreover, the “lowest concentration that inhibited CHIKV-induced CPE (clearing of cell monolayer)” value in [11] came to 12.5 µM. In series [4], this compound came in with a CC50 at 72 h of more than 50 µM. In [5] (setting [12]), the pEC50 was 5.21. Also, in [5], the “SI (CC50/EC50)” value is more than 8.1.

A word on the inhibition: it is the percentage by which the read-out fell short of the control.
